Results from US10906873B2, “Substituted cyclic amides as herbicides” (FMC Corporation, priority 2015, dated 2021).

Assays:
Format in all cases: in vivo
[1] = test system: ragweed (common ragweed, Ambrosia elatior); assay: Test A preemergence, ragweed; conditions: 0 to 100 scale
Procedure, shortened: (§1)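 Visual injury ratings, 0 = no effect to 100 = complete control, made versus untreated controls after about 10 d in greenhouse. Chemicals formulated in solvent mixture containing surfactant were sprayed on loam-sand soil after seeding (preemergence) or onto plants at one- to two-leaf stage, 2-10 cm (postemergence).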

[2] = test system: blackgrass (Alopecurus myosuroides); assay: Test A postemergence, blackgrass; conditions: 0 to 100 scale
Procedure, shortened: as §1

kochia (Kochia scoparia) [3] = assay: Test A postemergence, kochia; conditions: 0 to 100 scale
Procedure, shortened: as §1

[4] = test system: barnyardgrass (Echinochloa crus-galli); assay: Test A preemergence, barnyardgrass; conditions: 0 to 100 scale
Procedure, shortened: as §1

[5] = test system: foxtail, giant (giant foxtail, Setaria faberii); assay: Test A preemergence, foxtail, giant; conditions: 0 to 100 scale
Procedure, shortened: as §1

[6] = test system: pigweed (Amaranthus retroflexus); assay: Test A preemergence, pigweed; conditions: 0 to 100 scale
Procedure, shortened: as §1

[7] = test system: ragweed (common ragweed, Ambrosia elatior); assay: Test A postemergence, ragweed; conditions: 0 to 100 scale
Procedure, shortened: as §1

corn (Zea mays) = assay: Test A postemergence, corn; conditions: 0 to 100 scale
Procedure, shortened: as §1

[8] = test system: barnyardgrass (Echinochloa crus-galli); assay: Test B flooded paddy test, barnyardgrass; conditions: Flood, scale of 0 to 100 where 0 is no effect and 100 is complete control, 13 to 15 d
Procedure, shortened: (§2)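 Ratings use a 0-100 visual scale, where 100 is complete control, and compare treated plants with controls after 13 to 15 d of greenhouse growth. Compound went straight into paddy water kept 3 cm over the soil surface, applied to seedlings at the 2-leaf stage.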

[9] = test system: barnyardgrass (Echinochloa crus-galli); assay: Test A postemergence, barnyardgrass; conditions: 0 to 100 scale
Procedure, shortened: as §1

[10] = test system: pigweed (Amaranthus retroflexus); assay: Test A postemergence, pigweed; conditions: 0 to 100 scale
Procedure, shortened: as §1

[11] = test system: galium (catchweed bedstraw, Galium aparine); assay: Test A postemergence, galium; conditions: 0 to 100 scale
Procedure, shortened: as §1

rice (Oryza sativa) = assay: Test B flooded paddy test, rice; conditions: Flood, scale of 0 to 100 where 0 is no effect and 100 is complete control, 13 to 15 d
Procedure, shortened: as §2

[12] = test system: wheat (Triticum aestivum); assay: Test A postemergence, wheat; conditions: 0 to 100 scale
Procedure, shortened: as §1

[13] = test system: foxtail, giant (giant foxtail, Setaria faberii); assay: Test A postemergence, foxtail, giant; conditions: 0 to 100 scale
Procedure, shortened: as §1

[14] = test system: sedge, umbrella (small-flower umbrella sedge, Cyperus difformis); assay: Test B flooded paddy test, sedge, umbrella; conditions: Flood, scale of 0 to 100 where 0 is no effect and 100 is complete control, 13 to 15 d
Procedure, shortened: as §2

[15] = test system: ryegrass, It. (Italian ryegrass, Lolium multiflorum); assay: Test A postemergence, ryegrass, It.; conditions: 0 to 100 scale
Procedure, shortened: as §1

kochia (Kochia scoparia) [16] = assay: Test A preemergence, kochia; conditions: 0 to 100 scale
Procedure, shortened: as §1

[17] = test system: ryegrass, It. (Italian ryegrass, Lolium multiflorum); assay: Test A preemergence, ryegrass, It.; conditions: 0 to 100 scale
Procedure, shortened: as §1

[18] = test system: ducksalad (Heteranthera limosa); assay: Test B flooded paddy test, ducksalad; conditions: Flood, scale of 0 to 100 where 0 is no effect and 100 is complete control, 13 to 15 d
Procedure, shortened: as §2

Row | Structure (SMILES) | Plant response rating, Ragweed ([1]; 125 g ai/ha) | Plant response rating, Blackgrass ([2]; 125 g ai/ha) | Plant response rating, Blackgrass ([2]; 500 g ai/ha) | Plant response rating, Kochia (kochia (Kochia scoparia) [3]; 125 g ai/ha) | Plant response rating, Kochia (kochia (Kochia scoparia) [3]; 500 g ai/ha) | Plant response rating, Barnyardgrass ([4]; 125 g ai/ha) | Plant response rating, Barnyardgrass ([4]; 500 g ai/ha) | Plant response rating, Foxtail, Giant ([5]; 125 g ai/ha) | Plant response rating, Foxtail, Giant ([5]; 500 g ai/ha) | Plant response rating, Pigweed ([6]; 125 g ai/ha) | Plant response rating, Pigweed ([6]; 500 g ai/ha) | Plant response rating, Ragweed ([7]; 125 g ai/ha) | Plant response rating, Ragweed ([7]; 500 g ai/ha) | Plant response rating, Corn (corn (Zea mays); 125 g ai/ha) | Plant response rating, Corn (corn (Zea mays); 500 g ai/ha) | Plant response rating, Barnyardgrass ([9]; 125 g ai/ha) | Plant response rating, Barnyardgrass ([9]; 500 g ai/ha) | Plant response rating, Pigweed ([10]; 125 g ai/ha) | Plant response rating, Pigweed ([10]; 500 g ai/ha) | Plant response rating, Galium ([11]; 125 g ai/ha) | also measured
1 | O=C1NCC(Cc2ccccc2C(F)(F)F)C1C(=O)Nc1ccccc1C(F)(F)F (centres unmarked) [Compound 5] | 0 | 0 | 0 | 0 | 0 | 0 | 0 | 0 | 0 | 0 | 0 | 0 | 0 | 0 | 0 | 0 | 0 | 0 | 0 | 0 | Plant response rating, Ragweed ([1]; 500 g ai/ha): 0; Plant response rating, Barnyardgrass ([8]; 500 g ai/ha): 0; Plant response rating, Galium ([11]; 500 g ai/ha): 0; Plant response rating, Rice (rice (Oryza sativa); 500 g ai/ha): 0; Plant response rating, Wheat ([12]; 125 g ai/ha): 0; Plant response rating, Wheat ([12]; 500 g ai/ha): 0; Plant response rating, Foxtail, Giant ([13]; 125 g ai/ha): 0; Plant response rating, Foxtail, Giant ([13]; 500 g ai/ha): 0; Plant response rating, Sedge, Umbrella ([14]; 500 g ai/ha): 0; Plant response rating, Ryegrass, It. ([15]; 125 g ai/ha): 0; Plant response rating, Ryegrass, It. ([15]; 500 g ai/ha): 0; Plant response rating, Kochia (kochia (Kochia scoparia) [16]; 125 g ai/ha): 0; Plant response rating, Kochia (kochia (Kochia scoparia) [16]; 500 g ai/ha): 0; Plant response rating, Ryegrass, It. ([17]; 125 g ai/ha): 0; Plant response rating, Ryegrass, It. ([17]; 500 g ai/ha): 0; Plant response rating, Ducksalad ([18]; 500 g ai/ha): 0
2 | O=C1NCC(/C=C/c2ccccc2)C1C(=O)Nc1ccccc1F (centres unmarked) [Compound 32] | 0 | 0 | 0 | 0 | 0 | 20 | 60 | 0 | 80 | 0 | 0 | 10 | 10 | 20 | 20 | 40 | 90 | 0 | 0 | 0 | Plant response rating, Ragweed ([1]; 500 g ai/ha): 0; Plant response rating, Barnyardgrass ([8]; 250 g ai/ha): 0; Plant response rating, Galium ([11]; 500 g ai/ha): 0; Plant response rating, Rice (rice (Oryza sativa); 250 g ai/ha): 0; Plant response rating, Wheat ([12]; 125 g ai/ha): 0; Plant response rating, Wheat ([12]; 500 g ai/ha): 0; Plant response rating, Foxtail, Giant ([13]; 125 g ai/ha): 20; Plant response rating, Foxtail, Giant ([13]; 500 g ai/ha): 80; Plant response rating, Sedge, Umbrella ([14]; 250 g ai/ha): 0; Plant response rating, Ryegrass, It. ([15]; 125 g ai/ha): 0; Plant response rating, Ryegrass, It. ([15]; 500 g ai/ha): 0; Plant response rating, Kochia (kochia (Kochia scoparia) [16]; 125 g ai/ha): 0; Plant response rating, Kochia (kochia (Kochia scoparia) [16]; 500 g ai/ha): 0; Plant response rating, Ryegrass, It. ([17]; 125 g ai/ha): 0; Plant response rating, Ryegrass, It. ([17]; 500 g ai/ha): 0; Plant response rating, Ducksalad ([18]; 250 g ai/ha): 70
3 | O=C(Nc1cccc(C(F)(F)F)c1)C1CNC(=O)C1C(=O)Nc1cccc(F)c1F (centres unmarked) [Compound 18] | 0 | 20 | 30 | 0 | 0 | 20 | 30 | 50 | 60 | 0 | 0 | 0 | 0 | 0 | 0 | 20 | 30 | 0 | 30 | 0 | Plant response rating, Barnyardgrass ([8]; 250 g ai/ha): 30; Plant response rating, Galium ([11]; 500 g ai/ha): 50; Plant response rating, Rice (rice (Oryza sativa); 250 g ai/ha): 15; Plant response rating, Wheat ([12]; 125 g ai/ha): 0; Plant response rating, Wheat ([12]; 500 g ai/ha): 0; Plant response rating, Foxtail, Giant ([13]; 125 g ai/ha): 20; Plant response rating, Foxtail, Giant ([13]; 500 g ai/ha): 50; Plant response rating, Sedge, Umbrella ([14]; 250 g ai/ha): 0; Plant response rating, Ryegrass, It. ([15]; 125 g ai/ha): 0; Plant response rating, Ryegrass, It. ([15]; 500 g ai/ha): 0; Plant response rating, Kochia (kochia (Kochia scoparia) [16]; 125 g ai/ha): 0; Plant response rating, Kochia (kochia (Kochia scoparia) [16]; 500 g ai/ha): 0; Plant response rating, Ryegrass, It. ([17]; 125 g ai/ha): 0; Plant response rating, Ryegrass, It. ([17]; 500 g ai/ha): 20; Plant response rating, Ducksalad ([18]; 250 g ai/ha): 40
